Results: PubChem BioAssay (NCI)
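Each compound was tested at five concentrations against cells in 96-well plates for 48 hours. Definition used: TGI = concentration required for complete inhibition of growth.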

Legend:
Test in all cases: inhibition of tumour cell growth, NCI panel, 48 h
OVCAR-3 ovarian = system: OVCAR-3 ovarian
OVCAR-4 ovarian = system: OVCAR-4 ovarian
SR leukemia = system: SR leukemia
RPMI-8226 leukemia = system: RPMI-8226 leukemia
SNB-19 CNS = system: SNB-19 CNS
TK-10 renal = system: TK-10 renal
UO-31 renal = system: UO-31 renal
COLO 205 colon = system: COLO 205 colon
HCC-2998 colon = system: HCC-2998 colon
HOP-62 NSCLC = system: HOP-62 NSCLC
BT-549 breast = system: BT-549 breast
NCI-H460 lung = system: NCI-H460 lung
SF-268 CNS = system: SF-268 CNS
786-0 renal = system: 786-0 renal
OVCAR-5 ovarian = system: OVCAR-5 ovarian
SW-620 colon = system: SW-620 colon
NCI-H226 lung = system: NCI-H226 lung
CAKI-1 renal = system: CAKI-1 renal
SK-MEL-28 melanoma = system: SK-MEL-28 melanoma
DU-145 prostate = system: DU-145 prostate

Row | Structure (SMILES) | TGI (OVCAR-3 ovarian) [µM] | TGI (OVCAR-4 ovarian) [µM] | TGI (SR leukemia) [µM] | TGI (RPMI-8226 leukemia) [µM] | TGI (SNB-19 CNS) [µM] | TGI (TK-10 renal) [µM] | TGI (UO-31 renal) [µM] | TGI (COLO 205 colon) [µM] | TGI (HCC-2998 colon) [µM] | TGI (HOP-62 NSCLC) [µM] | TGI (BT-549 breast) [µM] | TGI (NCI-H460 lung) [µM] | TGI (SF-268 CNS) [µM] | TGI (786-0 renal) [µM] | TGI (OVCAR-5 ovarian) [µM] | TGI (SW-620 colon) [µM] | TGI (NCI-H226 lung) [µM] | TGI (CAKI-1 renal) [µM] | TGI (SK-MEL-28 melanoma) [µM] | TGI (DU-145 prostate) [µM]
1 | CC(C)c1nc2cc(C(F)(F)F)ccc2[nH]c1=O | > 100 | > 100 | > 100 | > 100 | > 100 | > 100 | > 100 | > 100 | > 100 | > 100 | > 100 | > 100 | > 100 | > 100 | > 100 | > 100 | > 100 | > 100 | > 100 | 
2 | COCO[C@@H]1C[C@H]2C(=O)N(COC)c3ccccc3C(=O)N2C1 |  | > 100 |  |  | > 100 | > 100 | > 100 | > 100 |  | > 100 | > 100 |  | > 100 | > 100 | > 100 | > 100 | > 100 | > 100 | > 100 | > 100
3 | C/C(=C\c1ccccc1)C(=O)NCc1ccc(C(=O)NCCC(C)C)cc1 | > 100 | > 100 |  | > 100 | > 100 | > 100 | > 100 | > 100 | > 100 | 48 | > 100 | > 100 | > 100 | > 100 | > 100 | > 100 | > 100 | > 100 | > 100 | > 100
4 | COC(=O)[C@H](Cc1ccccc1)NC(=O)N1CCCN(C(=O)N[C@@H](Cc2ccccc2)C(=O)OC)CCCN(C(=O)N[C@@H](Cc2ccccc2)C(=O)OC)CCC1 | 32.4 | 54.7 |  | > 100 | 74.8 | 65.4 | 29.4 | 34.8 | 38.6 | 35.5 | 57.1 | 81.5 | 34 | 32.1 | 33 | 39.7 | 31.5 | > 100 | 35.4 | 34
5 | CC(C)(C)OC(=O)CC(NC(=O)OC(C)(C)C)C(=O)N[C@@H]1CCCC[C@H]1C(=O)OCc1ccccc1 (some centres not stated) | > 100 | > 100 | > 100 | 95.4 | 69.3 | 79.6 | 53.8 | 38.2 | 64.7 | > 100 |  | > 100 | > 100 | > 100 | > 100 | > 100 | 60.3 | > 100 | > 100 | 99.8
6 | N#Cc1n[nH]n(C2CCCCC2)c1=O | > 100 | > 100 |  |  | > 100 | > 100 | > 100 | > 100 | > 100 | > 100 | > 100 | > 100 | > 100 | > 100 | > 100 | > 100 | > 100 | > 100 | > 100 | > 100
7 | Cc1ccc(Cc2n[nH]c(=O)n2/N=C\CC/C=N\n2c(Cc3ccc(C)cc3)n[nH]c2=O)cc1 | > 100 | > 100 |  | > 100 | > 100 | > 100 | > 100 | > 100 | > 100 | 24.6 | > 100 |  | 50.9 | 41 | > 100 | > 100 | 65.3 | > 100 | > 100 | > 100
8 | O=C(N/N=C(/COc1ccc(Cl)cc1)N=Cc1cccnc1)c1ccncc1 | > 100 | > 100 |  | > 100 | > 100 | > 100 |  | > 100 | > 100 | > 100 | > 100 | > 100 | > 100 | > 100 | > 100 | > 100 | > 100 | > 100 | > 100 | > 100
9 | O=S(=O)(N/N=C1\CC2CCC1C2)c1ccccc1 (configuration not stated) | > 100 | > 100 | > 100 | > 100 | > 100 | > 100 | > 100 | > 100 |  | > 100 | > 100 | > 100 | > 100 | > 100 | > 100 | > 100 | > 100 | > 100 | > 100 | > 100
10 | O=C1NC(=O)C(CC(C(=O)C(=O)Nc2ccccc2Cl)C(=O)c2ccc3ccccc3c2)C(=O)N1 (configuration not stated) | > 100 | > 100 |  |  | > 100 | > 100 | > 100 | > 100 | > 100 | > 100 | > 100 | > 100 | > 100 | > 100 | > 100 | > 100 | > 100 | > 100 | > 100 | > 100
11 | O=C1CCCC2C(O)CCC[C@H]12 (some centres not stated) |  | > 100 | > 100 |  | > 100 | > 100 | > 100 | > 100 | > 100 | > 100 | > 100 | > 100 | > 100 | > 100 | > 100 | > 100 | > 100 | > 100 | > 100 | > 100
12 | CC(C)C[C@H](NC(=O)[C@H](Cc1ccccc1)NC(=O)CCc1ccccc1)B(O)O | < 0.01 | < 0.01 |  | > 100 | 1.08 | < 0.01 | < 0.01 | < 0.01 | < 0.01 | < 0.01 | < 0.01 | < 0.0104 | < 0.01 | < 0.01 | < 0.01 | < 0.0104 | < 0.01 | 0.0554 | < 0.01 | < 0.01
13 | O=C1N(c2ccccc2)C2(c3ccccc3)CC3CCCC13S2 (configuration not stated) | > 100 | > 100 | > 100 | 98.8 | > 100 | 1.84 | > 100 | > 100 |  | > 100 | > 100 |  | > 100 | > 100 | > 100 | > 100 | > 100 | > 100 | > 100 | > 100
